Data: PubChem BioAssay AID342 (DTP/NCI, 2004)
Where “and” joins values, the source holds several entries; their conditions need not be identical. Equal entries are not always repeated.

Tested on: Swiss mice, Sarcoma 180 sc, mean tumor weight T/C
Assay: NCI In Vivo Anticancer Drug Screen. Data for tumor model Sarcoma 180 (subcutaneous) in Swiss mice
Conditions: endpoint: mean tumor weight, higher = larger tumour
Outline: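 T/C ratio: treated over vehicle-treated controls, measuring survival or tumor size in transplanted-tumor mice.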

[1] = dose: 125.0 mg/kg/injection, schedule: Q01DX007 (sc), vehicle: steriod suspending solution
[2] = dose: 25.0 mg/kg/injection, schedule: Q01DX007 (ip), vehicle: carboxymethylcellulose (CMC)
[3] = dose: 50.0 mg/kg/injection, schedule: Q01DX007 (ip), vehicle: carboxymethylcellulose (CMC)
[4] = dose: 125.0 mg/kg/injection, schedule: Q01DX007 (ip), vehicle: saline

In the case of `C[C@]12CCC(=O)C=C1[C@@H](F)C[C@@H]1[C@@H]2[C@@H](O)C[C@@]2(C)[C@H]1CC[C@]2(O)C(=O)CO`, the T/C (dose: 37.0 mg/kg/injection, schedule: Q01DX007 (sc), vehicle: steriod suspending solution) is reported as 76 % of control, the T/C (dose: 56.0 mg/kg/injection, schedule: Q01DX007 (sc), vehicle: steriod suspending solution) is reported as 89 % of control and the T/C [1] is reported as 97 % of control. For the same compound, the T/C (dose: 126.0 mg/kg/injection, schedule: Q01DX007 (sc), vehicle: steriod suspending solution) was 33 % of control and the T/C (dose: 188.0 mg/kg/injection, schedule: Q01DX007 (sc), vehicle: steriod suspending solution) was 29 % of control.

In the case of `O=C1CN(/N=C\c2ccc([N+](=O)[O-])o2)C(=O)N1`, the T/C (dose: 6.25 mg/kg/injection, schedule: Q#A X014 (ip), vehicle: carboxymethylcellulose (CMC)) is reported as 91 % of control, the T/C (dose: 12.5 mg/kg/injection, schedule: Q#A X014 (ip), vehicle: carboxymethylcellulose (CMC)) is reported as 94 % of control and the T/C (dose: 15.5 mg/kg/injection, schedule: Q01DX007 (ip), vehicle: carboxymethylcellulose (CMC)) is reported as 106 % of control. The T/C (dose: 21.0 mg/kg/injection, schedule: Q01DX007 (ip), vehicle: carboxymethylcellulose (CMC)) was 92 % of control, the T/C (dose: 25.0 mg/kg/injection, schedule: Q#A X014 (ip), vehicle: carboxymethylcellulose (CMC)) was 97 % of control and the T/C (dose: 42.0 mg/kg/injection, schedule: Q01DX007 (ip), vehicle: carboxymethylcellulose (CMC)) was 88 % of control. For the same compound, the T/C (dose: 50.0 mg/kg/injection, schedule: Q#A X014 (ip), vehicle: carboxymethylcellulose (CMC)) was 27 % of control and the T/C (dose: 84.0 mg/kg/injection, schedule: Q01DX007 (ip), vehicle: carboxymethylcellulose (CMC)) was 103 % of control.

In the case of `CC1(C)CCC2(C(=O)O)CCC3=C(C(CCl)CC4C3(C)CCC3C4(C)CC(O)C(O)C3(C)C(=O)O)C2C1` (stereo unspecified), the T/C [2] is reported as 108 % of control, the T/C [3] is reported as 80 % of control and the T/C (dose: 75.0 mg/kg/injection, schedule: Q01DX007 (ip), vehicle: carboxymethylcellulose (CMC)) is reported as 157 % of control. The T/C (dose: 125.0 mg/kg/injection, schedule: Q01DX007 (ip), vehicle: carboxymethylcellulose (CMC)) was 70 % of control.

`CO[C@H]1C[C@H](O[C@H]2CC[C@]3(C=O)[C@H]4CC[C@]5(C)[C@@H](C6=CC(=O)OC6)CC[C@]5(O)[C@@H]4CC[C@]3(O)C2)O[C@H](C)[C@H]1O` was tested, and the T/C (dose: 2.5 mg/kg/injection, schedule: Q01DX007 (sc), vehicle: saline) was 86 % of control and the T/C (dose: 5.0 mg/kg/injection, schedule: Q01DX007 (sc), vehicle: saline) was 62 % of control.

`C[C@]1(O)CC[C@H]2[C@@H]3CCc4cc(O)ccc4[C@H]3CC[C@@]21C` was tested, and the T/C (dose: 0.5 mg/kg/injection, schedule: Q#A X014 (sc), vehicle: steriod suspending solution) was 115 % of control, the T/C (dose: 5.0 mg/kg/injection, schedule: Q#A X014 (sc), vehicle: steriod suspending solution) was 103 % of control and the T/C (dose: 50.0 mg/kg/injection, schedule: Q#A X014 (sc), vehicle: steriod suspending solution) was 74 % of control.

For `CCCCSc1nc(N)nc2nc[nH]c12`, the T/C (dose: 18.75 mg/kg/injection, schedule: Q#A X014 (ip), vehicle: methylcellulose (MC)) was 89 % of control, the T/C (dose: 37.5 mg/kg/injection, schedule: Q#A X014 (ip), vehicle: methylcellulose (MC)) was 78 % of control and the T/C (dose: 75.0 mg/kg/injection, schedule: Q#A X014 (ip), vehicle: methylcellulose (MC)) was 102 % of control. The T/C (dose: 150.0 mg/kg/injection, schedule: Q#A X014 (ip), vehicle: methylcellulose (MC)) was 59 % of control.

With `N=C(c1nsnc1N)N1CCCC1` the T/C [4] was 100 % of control.

`CC12CCC3C(CCC4CC=CCC43C)C1CCC2=O` (stereo unspecified) was tested, and the T/C (dose: 31.0 mg/kg/injection, schedule: Q01DX007 (sc), vehicle: steriod suspending solution) was 102 % of control, the T/C (dose: 62.5 mg/kg/injection, schedule: Q01DX007 (sc), vehicle: steriod suspending solution) was 105 % of control and the T/C [1] was 107 % of control and 123 % of control. The T/C (dose: 250.0 mg/kg/injection, schedule: Q01DX007 (sc), vehicle: steriod suspending solution) was 95 % of control and 96 % of control.

For `CCC(=O)OCC1OC(n2cnc3c(=S)nc(N)[nH]c32)C(OC(=O)CC)C1OC(=O)CC` (stereo unspecified), the T/C (dose: 1.0 mg/kg/injection, schedule: Q01DX007 (ip), vehicle: carboxymethylcellulose (CMC)) was 61 % of control, the T/C (dose: 2.0 mg/kg/injection, schedule: Q01DX007 (ip), vehicle: carboxymethylcellulose (CMC)) was 65 % of control and the T/C (dose: 5.0 mg/kg/injection, schedule: Q01DX007 (ip), vehicle: carboxymethylcellulose (CMC)) was 57 % of control and 58 % of control. For the same compound, the T/C (dose: 11.0 mg/kg/injection, schedule: Q01DX007 (ip), vehicle: carboxymethylcellulose (CMC)) was 22 % of control.

`NC(=O)NO` was tested, and the T/C (dose: 16.0 mg/kg/injection, schedule: Q01DX007 (ip), vehicle: carboxymethylcellulose (CMC)) was 89 % of control, the T/C (dose: 32.0 mg/kg/injection, schedule: Q01DX007 (ip), vehicle: carboxymethylcellulose (CMC)) was 111 % of control and the T/C (dose: 64.0 mg/kg/injection, schedule: Q01DX007 (ip), vehicle: carboxymethylcellulose (CMC)) was 112 % of control. The T/C (dose: 128.0 mg/kg/injection, schedule: Q01DX007 (ip), vehicle: carboxymethylcellulose (CMC)) was 69 % of control.

`CC(=O)c1cccc(NC2C(N)C(NC(=O)N(C)C)(C(C)O)C(C)(O)C2(O)COC(=O)c2c(C)cccc2O)c1` (stereo unspecified) was tested, and the T/C (dose: 0.5 mg/kg/injection, schedule: Q01DX007 (ip), vehicle: other) was 88 % of control, the T/C (dose: 1.0 mg/kg/injection, schedule: Q01DX007 (ip), vehicle: other) was 81 % of control and the T/C (dose: 2.0 mg/kg/injection, schedule: Q01DX007 (ip), vehicle: other) was 110 % of control. The T/C (dose: 2.0 mg/kg/injection, schedule: Q01DX007 (ip), vehicle: saline) was 66 % of control.

`c1ccc(N2N=C3N(c4ccccc4)C2N3c2ccccc2)cc1` was tested, and the T/C (dose: 15.0 mg/kg/injection, schedule: Q01DX007 (ip), vehicle: other) was 114 % of control and the T/C (dose: 31.0 mg/kg/injection, schedule: Q01DX007 (ip), vehicle: other) was 72 % of control.

With `CC(=O)OCC(=O)[C@@]1(O)[C@H](C)C[C@H]2[C@@H]3C=C(C)C4=Cc5c(cnn5-c5ccc(F)cc5)C[C@]4(C)[C@H]3[C@@H](O)C[C@@]21C` the T/C (dose: 0.44 mg/kg/injection, schedule: Q01DX007 (sc), vehicle: steriod suspending solution) was 108 % of control, the T/C (dose: 0.66 mg/kg/injection, schedule: Q01DX007 (sc), vehicle: steriod suspending solution) was 85 % of control and the T/C (dose: 2.25 mg/kg/injection, schedule: Q01DX007 (sc), vehicle: steriod suspending solution) was 23 % of control and 34 % of control. For the same compound, the T/C (dose: 3.38 mg/kg/injection, schedule: Q01DX007 (sc), vehicle: steriod suspending solution) was 37 % of control and 44 % of control and 62 % of control, the T/C (dose: 5.07 mg/kg/injection, schedule: Q01DX007 (sc), vehicle: steriod suspending solution) was 26 % of control and 49 % of control and the T/C (dose: 7.61 mg/kg/injection, schedule: Q01DX007 (sc), vehicle: steriod suspending solution) was 24 % of control. The T/C (dose: 11.42 mg/kg/injection, schedule: Q01DX007 (sc), vehicle: steriod suspending solution) was 24 % of control.

In the case of `Cn1cnc([N+](=O)[O-])c1Sc1nc(N)nc2nc[nH]c12`, the T/C (dose: 1.35 mg/kg/injection, schedule: Q#A X014 (ip), vehicle: methylcellulose (MC)) is reported as 95 % of control, the T/C (dose: 3.0 mg/kg/injection, schedule: Q#A X014 (ip), vehicle: methylcellulose (MC)) is reported as 31 % of control and the T/C (dose: 5.0 mg/kg/injection, schedule: Q#A X014 (ip), vehicle: methylcellulose (MC)) is reported as 27 % of control. The T/C (dose: 5.15 mg/kg/injection, schedule: Q#A X014 (ip), vehicle: methylcellulose (MC)) was 29 % of control, the T/C (dose: 7.5 mg/kg/injection, schedule: Q#A X014 (ip), vehicle: methylcellulose (MC)) was 22 % of control and the T/C (dose: 7.75 mg/kg/injection, schedule: Q#A X014 (ip), vehicle: methylcellulose (MC)) was 29 % of control. For the same compound, the T/C (dose: 11.5 mg/kg/injection, schedule: Q#A X014 (ip), vehicle: methylcellulose (MC)) was 3 % of control.

`COC(=O)c1cc([N+](=O)[O-])cc([N+](=O)[O-])c1Cl` was tested, and the T/C (dose: 6.0 mg/kg/injection, schedule: Q01DX007 (ip), vehicle: methylcellulose (MC)) was 91 % of control, the T/C (dose: 12.0 mg/kg/injection, schedule: Q01DX007 (ip), vehicle: methylcellulose (MC)) was 111 % of control and the T/C (dose: 25.0 mg/kg/injection, schedule: Q01DX007 (ip), vehicle: methylcellulose (MC)) was 86 % of control.

In the case of `[N-]=[N+]=C1N=CN=C1c1ncn[nH]1`, the T/C [2] is reported as 107 % of control and the T/C [3] is reported as 69 % of control.

In the case of `CCCC(=O)OCC1OC(n2cnc3c(=S)nc(N)[nH]c32)C(OC(=O)CCC)C1OC(=O)CCC` (stereo unspecified), the T/C (dose: 4.1 mg/kg/injection, schedule: Q01DX007 (ip), vehicle: carboxymethylcellulose (CMC)) is reported as 52 % of control, the T/C (dose: 6.2 mg/kg/injection, schedule: Q01DX007 (ip), vehicle: carboxymethylcellulose (CMC)) is reported as 72 % of control and the T/C (dose: 9.3 mg/kg/injection, schedule: Q01DX007 (ip), vehicle: carboxymethylcellulose (CMC)) is reported as 45 % of control. For the same compound, the T/C (dose: 47.0 mg/kg/injection, schedule: Q01DX007 (ip), vehicle: carboxymethylcellulose (CMC)) was 39 % of control.

`CC(C)(C#N)C#N` was tested, and the T/C [4] was 30 % of control, the T/C (dose: 187.0 mg/kg/injection, schedule: Q01DX007 (ip), vehicle: saline) was 36 % of control and the T/C (dose: 375.0 mg/kg/injection, schedule: Q01DX007 (ip), vehicle: saline) was 52 % of control and 58 % of control.
